From patent US9562085B2, “Antimicrobial peptide” (priority 2013, dated 2017)

Key:
MRSA LUH15051 [1] = test: Burn wound infection model, thermally wounded human skin equivalents, mupirocin-resistant MRSA LUH15051; type: cell-based, Staphylococcus aureus; conditions: compared with LL-37 and P60.4Ac, FIG. 5
Experimental: (§1) Human skin equivalents were prepared as described in El Ghalbzouri et al. (Lab. Invest. 2004 January; 84(1):102-12). In brief, 5×10^5 normal human keratinocytes were seeded onto fibroblast-populated rat-tail collagen matrices. The collagen matrices were prepared in advance by making a basal (0.1% acetic acid, 4 mg/ml collagen, Hank's Balanced Salt Solution (HBSS, 10×), 1 M NaOH and FCS) and a top collagen layer in which normal human fibroblasts were seeded (4 mg/ml collagen, 10×HBSS, 1 M NaOH, FCS and fibroblasts). Transwell filters with 3 μm pore size (Corning 3414, Costar) were used to culture the human skin equivalents. The collagen matrices were cultured in fibroblast medium for a week. The full thickness human skin equivalents were first cultured submerged in keratinocyte medium for 2 or 3 days at 37° C. and 7.3% CO2 and were then cultured in keratinocyte medium as described above, but with 1% FCS and supplemented with […] L-serine, 10 mM L-carnitine, 1 μM DL-α-tocopherol-acetate, 50 μM ascorbic acid, a lipid supplement that contained palmitic acid, linoleic acid and arachidonic acid in a 1:1:1 ratio and 2.4×10^−5 M bovine serum albumin. […]

[2] = system: (drug-resistant) Pseudomonas aeruginosa strains; test: Activity against Pseudomonas aeruginosa; type: cell-based; conditions: various (drug-resistant) strains
[3] = system: lipoteichoic acid (LTA), peptidoglycan (PG) and lipopolysaccharides (LPS); test: Endotoxin neutralization
From the text: The term “anti-inflammatory activity” of a polypeptide as used herein refers to inhibiting, reducing or preventing an inflammatory response in a subject that has been infected by microbes, e.g., bacteria, viruses, fungi, and/or parasites. Anti-inflammatory activity of polypeptides of the disclosure is achieved by inhibiting, reducing or preventing the release of pro-inflammatory microbial compounds, such as lipoteichoic acid (LTA), peptidoglycan (PG) and/or lipopolysaccharides (LPS). Anti-inflammatory activity can be measured by methods known in the art. One example of such method is a lipopolysaccharide neutralization assay. In this method, a polypeptide of the disclosure is mixed with 1 mg of lipopolysaccharides and incubated for 60 minutes. Thereafter, these mixtures were added to 4 times diluted fresh human blood and 18 hours thereafter, the level of cytokines (1L-8, 1L-12p40) in the blood sample are measured by ELISA.

MRSA LUH14616 [4] = test: In vitro killing assay on mid-log phase bacteria, MRSA LUH14616; type: cell-based, Staphylococcus aureus; conditions: for killing of MRSA LUH14616, in words: comparison among peptides tested, FIGS. 2-3
From the text: (§2) The clinical isolate of methicillin-resistant Staphylococcus aureus (MRSA), LUH14616 was kindly provided by Dr. S. Croes, Maastricht University Medical Center, Maastricht, Netherlands (see S.B.M.C. Croes, Microbiol. 2009; 9:229. doi: 10.1186/1471-2180-9-229) and that of mupirocine-resistant MRSA LUH15051 was a gift from Dr. M.E.O.C. Heck (Laboratory for Infectious Diseases and Screening, National Institute for Public Health and Environment, RIVM, Bilthoven, Netherlands).
(§3) Bacteria were stored at -80° C. until use. Inoculi of mid-log phase bacteria were prepared by incubating isolated MRSA colonies from blood agar plates in Tryptic Soy Broth (TSB) medium (Becton Dickinson, Le Pont de Clax, France) for 2.5 hours and then diluted to the concentration needed.
(§4) For the in vitro killing assay on mid-log phase bacteria, MRSA LUH14616 and MRSA LUH15051 were resuspended to a concentration of 1×10^6 bacteria/ml in PBS. Subsequently, 200 μl was added to a concentration range of peptides LL-37, P60.4Ac (OP-145) and P10 that were lyophilized in advance. Subsequently, the bacteria-peptide mixture was incubated for 1 hour at 37° C. To establish the killing capacity of these peptides, the suspensions were serially diluted and plated onto DST agar plates to measure viable CFU counts. IC90, IC99 and IC99.9 values are calculated by linear regression analysis.

[5] = system: (drug-resistant) Acinetobacter baumannii strains; test: Activity against Acinetobacter baumannii; type: cell-based
mycobacteria = test: Activity against mycobacteria; type: cell-based
[6] = system: (fluconazole-resistant) Candida albicans; test: Activity against Candida albicans; type: cell-based
[7] = system: methicillin-resistant S. aureus biofilm; test: Prevention of MRSA biofilm formation; type: cell-based; conditions: on plastic as well as biotic (wounded 3-D human skin model) surfaces
MRSA LUH14616 [8] = test: Burn wound infection model, thermally wounded human skin equivalents, MRSA LUH14616; type: cell-based, Staphylococcus aureus; conditions: compared with LL-37 and P60.4Ac, FIG. 4
Experimental: as §1

[9] = system: Staphylococcus epidermidis; test: Activity against Staphylococcus epidermidis; type: cell-based
S. aureus JAR = type: cell-based; conditions: JAR, 2 h
Experimental: S. aureus JAR is described in Campoccia et al. (Int. J. Artif. Organs, 2008 September; 31(9):841-7).
For the in vitro killing assay with P10 variants, S. aureus JAR ([…] CFU/ml) were incubated for 2 hours at 37° C. with various concentrations of the peptides in PBS or in PBS/human plasma (1/1, v/v). […] The LC99.9 is the average value of two independent experiments.

MRSA LUH15051 [10] = test: In vitro killing assay on mid-log phase bacteria, mupirocine-resistant MRSA LUH15051; type: cell-based, Staphylococcus aureus; conditions: compared with LL-37 and P60.4Ac
From the text: as §2, §3, §4

Aspergillus niger = test: Activity against Aspergillus niger; type: cell-based

Question: Which results are given for “Ac-LAREYKKIVEKLKRWLRQVLRTLR-NH2 (N-terminus and C-terminus assumed) [Peptide P10]”?
Answer: eliminating mupirocine-resistant MRSA from thermally wounded human skin equivalents, in words (MRSA LUH15051 [1]): more effective than LL-37 and P60.4Ac; effectiveness against Pseudomonas aeruginosa [2]: highly effective; neutralization of endotoxin LTA, PG and LPS [3]: neutralizes; activity compared with P60.4Ac (MRSA LUH14616 [4]; MRSA LUH14616, surviving bacteria at similar concentration): approximately 100 times; IC99.9 (MRSA LUH14616 [4]; MRSA LUH14616 in PBS, 1 hour at 37° C., 99.9% Inhibitory Concentration, linear regression): 0.59 µM; effectiveness against MRSA bacteria in log phase, stationary bacteria and bacteria residing in biofilms (MRSA LUH14616 [4]; MRSA, strain not stated): highly effective; killing of MRSA LUH14616, in words (MRSA LUH14616 [4]): highest activity; killing of MRSA LUH14616, in words (MRSA LUH14616 [4]; listed as Peptide 10): more effective than LL-37 and P60.4Ac; effectiveness against Acinetobacter baumannii [5]: highly effective; effectiveness against mycobacteria (mycobacteria): highly effective; effectiveness against Candida albicans [6]: highly effective; prevention of MRSA biofilm formation [7]: able to prevent; eliminating MRSA from thermally wounded human skin equivalents, in words (MRSA LUH14616 [8]): more effective than LL-37 and P60.4Ac; effectiveness against Staphylococcus epidermidis [9]: highly effective; LC99.9 (μM) (50% plasma) (S. aureus JAR): 102.4 µM; LC99.9 (μM) (PBS) (S. aureus JAR): 1.6 µM; killing of mupirocine-resistant MRSA, in words (MRSA LUH15051 [10]): more effective than LL-37 and P60.4Ac; effectiveness against Aspergillus niger (Aspergillus niger): highly effective
